Counter-ions that a name gives are not always drawn. Like-named read-outs stand apart in the source and are kept apart here.
Assays:
NZB5 = experiment: Cellular growth inhibition, NZB5 (3H-thymidine incorporation); format: cell-based, human
Experimental: (§1) The compounds were evaluated against two early passage human cell lines NZB5 and NZOV9 (Marshall et al., Oncol. Res. 2004, 14, 297). The cells were grown in ITS medium (α-modified minimal essential medium supplemented insulin, transferrin, selenite, and 5% fetal bovine serum) and grown on 96-well tissue culture plates under an atmosphere of 5% O2, 5% CO2, and 90% N2. Individual wells contained 500-1,000 cells (depending on the growth rate) in a volume of 150 μL. Compounds were added at 10-fold concentration steps to a maximum of 20 μM and plates were incubated for five days, with ^3H-thymidine being added over the last 6 hrs. Cells were harvested and incorporated radioactivity measured. Duplicate samples were analyzed for each compound dose with multiple control samples.

NZOV9 = experiment: Cellular growth inhibition, NZOV9 (3H-thymidine incorporation); format: cell-based, human
Experimental: as §1

[1] = read-out: Cell IC50 NZB5, five days incubation, 3H-thymidine over the last 6 hrs
[2] = read-out: Cell IC50 NZOV9, five days incubation, 3H-thymidine over the last 6 hrs
[3] = Homo sapiens, NZB5, five days incubation, 3H-thymidine over the last 6 hrs, read-out: Cell IC50 NZB5
[4] = Homo sapiens, NZOV9, five days incubation, 3H-thymidine over the last 6 hrs, read-out: Cell IC50 NZOV9
[5] = Homo sapiens, NZB5, read-out: Cell IC50 NZB5
[6] = Homo sapiens, NZOV9, read-out: Cell IC50 NZOV9

SMILES	IC50 (NZB5; [1])	IC50 (NZOV9; [2])	melting point	IC50 (NZB5; [3])	IC50 (NZOV9; [4])	IC50 (NZB5; [5])	IC50 (NZOV9; [6])
COc1cccc2c1nc(C(F)F)n2-c1nc(N[C@H]2CCN(S(C)(=O)=O)C2)nc(N2CCOCC2)n1 [Example 34, 4-[2-(difluoromethyl)-4-methoxy-1H-benzimidazol-1-yl]-N-[(3S)-1-(methylsulfonyl)pyrrolidinyl]-6-(4-morpholinyl)-1,3,5-triazin-2-amine]	100 to 1000 nM	< 100 nM					
COc1cccc2c1nc(C(F)F)n2-c1nc(OC2CCN(S(=O)(=O)CCN3CCN(S(C)(=O)=O)CC3)CC2)nc(N2CCOCC2)n1 [Example 52, 2-(difluoromethyl)-4-methoxy-1-[4-{[1-({2-[4-(methylsulfonyl)-1-piperazinyl]ethyl}sulfonyl)-4-piperidinyl]oxy}-6-(4-morpholinyl)-1,3,5-triazin-2-yl]-1H-benzimidazole]			251 to 254 °C	> 1000 nM	> 1000 nM		
COc1cccc2c1nc(C(F)F)n2-c1nc(N2CCOCC2)nc(N2CCN(S(C)(=O)=O)CC2)n1 [Example 2, 2-(difluoromethyl)-4-methoxy-1-[4-[4-(methylsulfonyl)-1-piperazinyl]-6-(4-morpholinyl)-1,3,5-triazin-2-yl]-1H-benzimidazole]			311 to 314 °C			100 to 1000 nM	100 to 1000 nM
COc1cccc2c1nc(C(F)F)n2-c1nc(N2CCOCC2)nc(N2CCCC(N(C)S(C)(=O)=O)C2)n1 (stereo in doubt) [Example 45, N-{(3R)-1-[4-[2-(difluoromethyl)-4-methoxy-1H-benzimidazol-1-yl]-6-(4-morpholinyl)-1,3,5-triazin-2-yl]piperidinyl}-N-methylmethanesulfonamide]			224 to 226 °C			100 to 1000 nM	< 100 nM
COc1cccc2c1nc(C(F)F)n2-c1nc(N2CCOCC2)nc(N2CCC(N(C)S(C)(=O)=O)C2)n1 (stereo in doubt) [Example 37, N-{(3R)-1-[4-[2-(difluoromethyl)-4-methoxy-1H-benzimidazol-1-yl]-6-(4-morpholinyl)-1,3,5-triazin-2-yl]pyrrolidinyl}-N-methylmethanesulfonamide]			242 to 244 °C			100 to 1000 nM	< 100 nM
COc1cccc2c1nc(C(F)F)n2-c1nc(N2CCOCC2)nc(N2CCC(NS(C)(=O)=O)C2)n1 (stereo in doubt) [Example 38, N-{(3S)-1-[4-[2-(difluoromethyl)-4-methoxy-1H-benzimidazol-1-yl]-6-(4-morpholinyl)-1,3,5-triazin-2-yl]pyrrolidinyl}methanesulfonamide]			290 to 292 °C			100 to 1000 nM	< 100 nM
COc1cccc2c1nc(C(F)F)n2-c1nc(N[C@H]2CC[C@H](NS(C)(=O)=O)CC2)nc(N2CCOCC2)n1 [Example 78, trans-N-(4-{[4-[2-(difluoromethyl)-4-methoxy-1H-benzimidazol-1-yl]-6-(4-morpholinyl)-1,3,5-triazin-2-yl]amino}cyclohexyl)methanesulfonamide]			269 to 272 °C			100 to 1000 nM	< 100 nM
COc1cc(N)cc2c1nc(C(F)F)n2-c1nc(N2CCOCC2)nc(N2CCN(S(=O)(=O)CCN(C)C)CC2)n1 [Example 84, N-[2-({4-[4-[6-amino-2-(difluoromethyl)-4-methoxy-1H-benzimidazol-1-yl]-6-(4-morpholinyl)-1,3,5-triazin-2-yl]-1-piperazinyl}sulfonyl)ethyl]-N,N-dimethylamine]				< 100 nM	> 1000 nM		
COc1cccc2c1nc(C(F)F)n2-c1nc(OC2CCN(S(=O)(=O)CCN3CCOCC3)CC2)nc(N2CCOCC2)n1 [Example 51, 2-(difluoromethyl)-4-methoxy-1-{4-(4-morpholinyl)-6-[(1-{[2-(4-morpholinyl)ethyl]sulfonyl}-4-piperidinyl)oxy]-1,3,5-triazin-2-yl}-1H-benzimidazole]				> 1000 nM	100 to 1000 nM		
COc1cccc2c1nc(C(F)F)n2-c1nc(N2CCOCC2)nc(N2CCCC(N(C)S(C)(=O)=O)C2)n1 (stereo in doubt) [Example 47, N-{(3S)-1-[4-[2-(difluoromethyl)-4-methoxy-1H-benzimidazol-1-yl]-6-(4-morpholinyl)-1,3,5-triazin-2-yl]piperidinyl}-N-methylmethanesulfonamide]			221 to 223 °C			100 to 1000 nM	< 100 nM
COc1cccc2c1nc(C(F)F)n2-c1nc(N[C@@H]2CCCN(S(C)(=O)=O)C2)nc(N2CCOCC2)n1 [Example 40, 4-[2-(difluoromethyl)-4-methoxy-1H-benzimidazol-1-yl]-N-[(3R)-1-(methylsulfonyl)piperidinyl]-6-(4-morpholinyl)-1,3,5-triazin-2-amine]			241 to 243 °C			100 to 1000 nM	< 100 nM
COc1cccc2c1nc(C(F)F)n2-c1nc(N[C@@H]2CCN(S(C)(=O)=O)C2)nc(N2CCOCC2)n1 [Example 32, 4-[2-(difluoromethyl)-4-methoxy-1H-benzimidazol-1-yl]-N-[(3R)-1-(methylsulfonyl)pyrrolidinyl]-6-(4-morpholinyl)-1,3,5-triazin-2-amine]			260 to 261 °C			100 to 1000 nM	< 100 nM
COc1cccc2c1nc(C(F)F)n2-c1nc(N[C@H]2CC[C@@H](NS(C)(=O)=O)CC2)nc(N2CCOCC2)n1 [Example 79, cis-N-(4-{[4-[2-(difluoromethyl)-4-methoxy-1H-benzimidazol-1-yl]-6-(4-morpholinyl)-1,3,5-triazin-2-yl]amino}cyclohexyl)methanesulfonamide]						100 to 1000 nM	< 100 nM
COc1cccc2c1nc(C(F)F)n2-c1nc(N2CCOCC2)nc(N2CCC(N(C)S(C)(=O)=O)C2)n1 (stereo in doubt) [Example 39, N-{(3S)-1-[4-[2-(difluoromethyl)-4-methoxy-1H-benzimidazol-1-yl]-6-(4-morpholinyl)-1,3,5-triazin-2-yl]pyrrolidinyl}-N-methylmethanesulfonamide]			244 to 247 °C			100 to 1000 nM	< 100 nM
COc1cccc2c1nc(C(F)F)n2-c1nc(N2CCOCC2)nc(N2CCC(NS(C)(=O)=O)C2)n1 (stereo in doubt) [Example 36, N-{(3R)-1-[4-[2-(difluoromethyl)-4-methoxy-1H-benzimidazol-1-yl]-6-(4-morpholinyl)-1,3,5-triazin-2-yl]pyrrolidinyl}methanesulfonamide]			290 to 292 °C			100 to 1000 nM	< 100 nM
COc1cccc2c1nc(C(F)F)n2-c1nc(N2CCOCC2)nc(N(C)[C@H]2CCN(S(C)(=O)=O)C2)n1 [Example 35, 4-[2-(difluoromethyl)-4-methoxy-1H-benzimidazol-1-yl]-N-methyl-N-[(3S)-1-(methylsulfonyl)pyrrolidinyl]-6-(4-morpholinyl)-1,3,5-triazin-2-amine]	< 100 nM	< 100 nM					
COc1cccc2c1nc(C(F)F)n2-c1nc(N2CCOCC2)c2cnn(C3CCN(S(=O)(=O)CCN(C)C)CC3)c2n1 [Example 99, N-[2-({4-[6-[2-(difluoromethyl)-4-methoxy-1H-benzimidazol-1-yl]-4-(4-morpholinyl)-1H-pyrazolo[3,4-d]pyrimidin-1-yl]-1-piperidinyl}sulfonyl)ethyl]-N,N-dimethylamine]				< 100 nM	< 100 nM		
COc1cccc2c1nc(C(F)F)n2-c1nc(N2CCOCC2)nc(N(C)[C@@H]2CCN(S(C)(=O)=O)C2)n1 [Example 33, 4-[2-(difluoromethyl)-4-methoxy-1H-benzimidazol-1-yl]-N-methyl-N-[(3R)-1-(methylsulfonyl)pyrrolidinyl]-6-(4-morpholinyl)-1,3,5-triazin-2-amine]			238 to 240 °C			< 100 nM	< 100 nM
COc1cccc2c1nc(C(F)F)n2-c1nc(N2CCOCC2)nc(N2CCCC(NS(C)(=O)=O)C2)n1 (stereo in doubt) [Example 46, N-{(3S)-1-[4-[2-(difluoromethyl)-4-methoxy-1H-benzimidazol-1-yl]-6-(4-morpholinyl)-1,3,5-triazin-2-yl]piperidinyl}methanesulfonamide]			220 to 221 °C			100 to 1000 nM	< 100 nM
COc1cccc2c1nc(C(F)F)n2-c1nc(N2CCOCC2)nc(N2CCCC(NS(C)(=O)=O)C2)n1 (stereo in doubt) [Example 44, N-{(3R)-1-[4-[2-(difluoromethyl)-4-methoxy-1H-benzimidazol-1-yl]-6-(4-morpholinyl)-1,3,5-triazin-2-yl]piperidinyl}methanesulfonamide]			220 to 221 °C			100 to 1000 nM	< 100 nM
COc1cccc2c1nc(C(F)F)n2-c1nc(N[C@H]2CCCN(S(C)(=O)=O)C2)nc(N2CCOCC2)n1 [Example 42, 4-[2-(difluoromethyl)-4-methoxy-1H-benzimidazol-1-yl]-N-[(3S)-1-(methylsulfonyl)piperidinyl]-6-(4-morpholinyl)-1,3,5-triazin-2-amine]	100 to 1000 nM	< 100 nM	239 to 241 °C				
CN(C)CCS(=O)(=O)N1CCN(c2nc(N3CCOCC3)nc(-n3c(C(F)F)nc4ccccc43)n2)CC1 (as salt: hydrochloride) [Example 83, N-[2-({4-[4-[2-(difluoromethyl)-1H-benzimidazol-1-yl]-6-(4-morpholinyl)-1,3,5-triazin-2-yl]-1-piperazinyl}sulfonyl)ethyl]-N,N-dimethylamine]			244 to 246 °C				
